Laboratory results published in PubChem BioAssay AID328 (DTP/NCI, 2004).
Toxic doses and inconclusive results are not listed. The calls were made as follows: active = survival T/C of 150% or more; inactive = T/C below 125% in these data.

Test system: BDF1 mice, P388 leukemia ip, median survival T/C
Test: NCI In Vivo Anticancer Drug Screen. Data for tumor model P388 Leukemia (intraperitoneal) in B6D2F1 (BDF1) mice
Settings: endpoint: median survival time, higher = longer survival
Summary of the method: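 T/C = treated-group survival ÷ vehicle-control survival; tumour transplanted into mice before dosing.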

Measured: T/C

CCc1nc(N)nc(N)c1-c1ccc(Cl)cc1
inactive: dose: 2.0 mg/kg/injection, schedule: Q03HX008 (ip), vehicle: Klucel (hydroxypropylcellulose) (HPC) 100 % of control | dose: 2.0 mg/kg/injection, schedule: Q03HX016 (ip), vehicle: Klucel (hydroxypropylcellulose) (HPC) 91 % of control | dose: 2.0 mg/kg/injection, schedule: Q03HX024 (ip), vehicle: Klucel (hydroxypropylcellulose) (HPC) 91 % of control | dose: 4.0 mg/kg/injection, schedule: Q01DX009 (ip), vehicle: Klucel (hydroxypropylcellulose) (HPC) 95 % of control | dose: 4.0 mg/kg/injection, schedule: Q01DX009 (sc), vehicle: Klucel (hydroxypropylcellulose) (HPC) 100 % of control | dose: 4.0 mg/kg/injection, schedule: Q03HX008 (ip), vehicle: Klucel (hydroxypropylcellulose) (HPC) 95 % of control | dose: 4.0 mg/kg/injection, schedule: Q03HX016 (ip), vehicle: Klucel (hydroxypropylcellulose) (HPC) 100 % of control | dose: 4.0 mg/kg/injection, schedule: Q03HX024 (ip), vehicle: Klucel (hydroxypropylcellulose) (HPC) 91 % of control | dose: 8.0 mg/kg/injection, schedule: Q01DX009 (ip), vehicle: Klucel (hydroxypropylcellulose) (HPC) 91 % of control | dose: 8.0 mg/kg/injection, schedule: Q01DX009 (sc), vehicle: Klucel (hydroxypropylcellulose) (HPC) 100 % of control | dose: 8.0 mg/kg/injection, schedule: Q01DX010 (ip), vehicle: saline 100 % of control | dose: 8.0 mg/kg/injection, schedule: Q03HX008 (ip), vehicle: Klucel (hydroxypropylcellulose) (HPC) 100 % of control | dose: 8.0 mg/kg/injection, schedule: Q03HX016 (ip), vehicle: Klucel (hydroxypropylcellulose) (HPC) 91 % of control | dose: 8.0 mg/kg/injection, schedule: Q03HX024 (ip), vehicle: Klucel (hydroxypropylcellulose) (HPC) 95 % of control | dose: 16.0 mg/kg/injection, schedule: Q01DX001 (ip), vehicle: Klucel (hydroxypropylcellulose) (HPC) 100 % of control | dose: 16.0 mg/kg/injection, schedule: Q01DX001 (oral), vehicle: Klucel (hydroxypropylcellulose) (HPC) 100 % of control | dose: 16.0 mg/kg/injection, schedule: Q01DX001 (sc), vehicle: Klucel (hydroxypropylcellulose) (HPC) 100 % of control | dose: 16.0 mg/kg/injection, schedule: Q01DX009 (ip), vehicle: Klucel (hydroxypropylcellulose) (HPC) 91 % of control | dose: 16.0 mg/kg/injection, schedule: Q01DX009 (oral), vehicle: Klucel (hydroxypropylcellulose) (HPC) 104 % of control | dose: 16.0 mg/kg/injection, schedule: Q01DX009 (sc), vehicle: Klucel (hydroxypropylcellulose) (HPC) 100 % of control | dose: 16.0 mg/kg/injection, schedule: Q01DX010 (ip), vehicle: saline 95 % of control | dose: 16.0 mg/kg/injection, schedule: Q03HX008 (ip), vehicle: Klucel (hydroxypropylcellulose) (HPC) 91 % of control | dose: 16.0 mg/kg/injection, schedule: Q03HX016 (ip), vehicle: Klucel (hydroxypropylcellulose) (HPC) 100 % of control | dose: 16.0 mg/kg/injection, schedule: Q03HX024 (ip), vehicle: Klucel (hydroxypropylcellulose) (HPC) 100 % of control | dose: 16.0 mg/kg/injection, schedule: Q04DX003 (ip), vehicle: Klucel (hydroxypropylcellulose) (HPC) 100 % of control | dose: 16.0 mg/kg/injection, schedule: Q08DX002 (ip), vehicle: Klucel (hydroxypropylcellulose) (HPC) 100 % of control | dose: 32.0 mg/kg/injection, schedule: Q01DX001 (ip), vehicle: Klucel (hydroxypropylcellulose) (HPC) 100 % of control | dose: 32.0 mg/kg/injection, schedule: Q01DX001 (oral), vehicle: Klucel (hydroxypropylcellulose) (HPC) 90 % of control | dose: 32.0 mg/kg/injection, schedule: Q01DX001 (sc), vehicle: Klucel (hydroxypropylcellulose) (HPC) 104 % of control | dose: 32.0 mg/kg/injection, schedule: Q01DX009 (ip), vehicle: Klucel (hydroxypropylcellulose) (HPC) 95 % of control | dose: 32.0 mg/kg/injection, schedule: Q01DX009 (sc), vehicle: Klucel (hydroxypropylcellulose) (HPC) 100 % of control | dose: 32.0 mg/kg/injection, schedule: Q01DX010 (ip), vehicle: saline 90 % of control | dose: 32.0 mg/kg/injection, schedule: Q04DX003 (ip), vehicle: Klucel (hydroxypropylcellulose) (HPC) 100 % of control | dose: 32.0 mg/kg/injection, schedule: Q08DX002 (ip), vehicle: Klucel (hydroxypropylcellulose) (HPC) 95 % of control | dose: 64.0 mg/kg/injection, schedule: Q01DX001 (ip), vehicle: Klucel (hydroxypropylcellulose) (HPC) 100 % of control | dose: 64.0 mg/kg/injection, schedule: Q01DX001 (oral), vehicle: Klucel (hydroxypropylcellulose) (HPC) 104 % of control | dose: 64.0 mg/kg/injection, schedule: Q01DX001 (sc), vehicle: Klucel (hydroxypropylcellulose) (HPC) 109 % of control | dose: 64.0 mg/kg/injection, schedule: Q01DX009 (ip), vehicle: Klucel (hydroxypropylcellulose) (HPC) 116 % of control | dose: 64.0 mg/kg/injection, schedule: Q01DX009 (sc), vehicle: Klucel (hydroxypropylcellulose) (HPC) 113 % of control | dose: 64.0 mg/kg/injection, schedule: Q01DX010 (ip), vehicle: saline 90 % of control | dose: 64.0 mg/kg/injection, schedule: Q04DX003 (ip), vehicle: Klucel (hydroxypropylcellulose) (HPC) 100 % of control | dose: 64.0 mg/kg/injection, schedule: Q08DX002 (ip), vehicle: Klucel (hydroxypropylcellulose) (HPC) 91 % of control | dose: 128.0 mg/kg/injection, schedule: Q01DX001 (ip), vehicle: Klucel (hydroxypropylcellulose) (HPC) 100 % of control | dose: 128.0 mg/kg/injection, schedule: Q01DX001 (oral), vehicle: Klucel (hydroxypropylcellulose) (HPC) 100 % of control | dose: 128.0 mg/kg/injection, schedule: Q01DX001 (sc), vehicle: Klucel (hydroxypropylcellulose) (HPC) 100 % of control | dose: 128.0 mg/kg/injection, schedule: Q04DX003 (ip), vehicle: Klucel (hydroxypropylcellulose) (HPC) 100 % of control | dose: 128.0 mg/kg/injection, schedule: Q08DX002 (ip), vehicle: Klucel (hydroxypropylcellulose) (HPC) 100 % of control
